According to patent US12643887B2, “Heterocyclic derivatives with cardiomyocyte proliferation activity for treatment of heart diseases” (Tongji University, priority 2019, dated 2026):

Columns and labels:
[1] = tested on: Neonatal Rat Ventricular Myocytes (NRVMs); assay: Myocyte proliferation assay (EdU assay) in neonatal rat ventricular myocytes; assay type: cell-based; conditions: growth relative to blank myocyte growth without compound added; for Avg 1 uM (average myocyte proliferation): compound 1 uM; for Avg 3 uM (average myocyte proliferation): compound 3 uM; for Avg 10 uM (average myocyte proliferation): compound 10 uM
Procedure: 1. Isolation of and Culture Neonatal Rat Ventricular Myocytes (NRVMs)
Ventricles from neonatal rats were separated from the atria, cut into small pieces (about 2×2 mm^2) and then dissociated in Ca2+-free HBSS containing 0.125 mg ml-1 trypsin (Gibco), 10 μg ml-1 DNase II (Sigma) and 0.1 mg ml-1 collagenase type IV (Sigma). The digestion was carried out under constant stirring at 37° C. for 5 min. The supernatant was collected with FBS (Gibco) after each digestion period. After digestion, the collected supernatant was centrifuged at 1000 g for 10 min at room temperature, and then cell pellets were resuspended in DMEM (Gibco) supplemented with 10% FBS and with 100 uM 5-bromo-2′-deoxyuridine (Sigma). The resuspended cells were passed through a cell strainer ([…], BD Falcon) and seeded onto 100-mm plastic dishes for 2 h at 37° C. in a 5% CO2 to remove fibroblasts, the supernatant was then collected and plated onto 1% gelatin (Sigma)-coated dishes. 24 h after the seeding, the medium was changed to DMEM (Gibco) containing 2% FBS (Gibco), 1% insulin-transferrin-selenium (ITS; Gibco), 1% Penicillin-Streptomycin (Gibco). After 24 hours of low serum culture, remove the medium with DMEM (Gibco) containing 6% FBS (Gibco), 1% insulin-transferrin-selenium (ITS; Gibco), 1% Penicillin-Streptomycin (Gibco), different concentrations of compounds (the compounds were pre-diluted in the medium and the drug concentration was 10 uM, 3 uM, 1 uM, fully mixed). After 36 h add Edu substrate (Invitrogen) according to the manufacturer's guidelines, and then after 12 h cell can be used.
• 2.1. Immobilization: Remove the medium and fix the cells with […] in 200 ul (whichever is covered) for 15 min and wash the cells twice with 500 ul of PBS for 5 min each time. • 2.2. Broken membrane: Add 200 ul of 0.3% Triton-X 100 (diluted in PBS) to each well, incubate for 10-15 min at room temperature (the time should not be too long), and wash the cells twice with 500 ul of PBS for 5 min each time. • 2.3. Blocking: Add 200 ul of 10% normal goat serum (diluted with 0.1% PBST) to each well, incubate for 1 h at room temperature, and wash twice with 500 ul of 0.1% PBST for 5 min each time. • 2.4. Primary antibody: dilute the primary antibody (abcam, ab8295) to blocking solution at a ratio of 1:200, add 100 ul per well, incubate for 1 h at room temperature (may be slightly longer than 2-3 h), wash the cells twice with 500 ul 0.1% PBST for 5 min each time. • 2.5. Secondary antibody: Dilute the fluorescently labeled secondary antibody (abcam, ab150117) into blocking solution at a ratio of 1:200, add 100 ul per well, incubate for 1 h at room temperature (the time should not be too long), wash the cells twice with 0.1% PBST for 5 min each time, pay attention to the whole process. Protected from light. • 2.6. Edu staining (Invitrogen C10338) • 2.6.1 Prepare Click-iT® reaction cocktail according to Table 3. It was important to add the ingredients in the order listed in the table; otherwise, the reaction would not proceed optimally. Use the Click-iT® reaction cocktail within 15 minutes of preparation.
• 2.6.2 Add 0.1 mL of Click-iT® reaction cocktail to each well containing a coverslip. Rock the plate briefly to ensure that the reaction cocktail is distributed evenly over the coverslip. • 2.6.3 Incubate the plate for 30 minutes at room temperature, protected from light. • 2.6.4 Remove the reaction cocktail, then wash the cells twice with 0.1% PBST for 5 min each time. • 2.7. DAPI staining: DAPI stain was diluted to PBS at a ratio of 1:1000, 100 ul per well, incubated for 30 min at room temperature, and the cells were washed twice with PBS for 5 min each. 3. Data Analysis
We used Molecular Devices' Image Xpress Micro Confocal for high-throughput photo and data analysis.

human DYRK1A = target: T1, human DYRK1A (Homo sapiens, UniProt Q13627); assay: DYRK1A enzyme assay (ADP-Glo); assay type: biochemical; conditions: ADP-Glo, ATP 60 μM; read-out: DYRK1A IC50
T1 construct: Recombinant full-length DYRK1A (expressed in E. Coli cells with an N-terminal GST tag); GST (N); purchased SignalChem D09-10G; host or cells: E. coli
Procedure: The ability of compounds to inhibit human DYRK1A kinase activities was determined using a commercially available ADP-Glo™ Kinase Assay kit (Promega, Cat #V9102) according to the manufacturer's protocol.
Recombinant full-length DYRK1A (expressed in E. Coli cells with an N-terminal GST tag) was purchased from SignalChem (Cat #D09-10G). The DYRK substrate peptide (DYRKtide, sequence: […]) was purchased from SignalChem (Cat #D96-58). This assay, run in a 384-well plate format, is a generic method for measuring kinase activities using an ADP-Glo Kinase Assay Kit. The basic assay procedure involves two steps: (1) Enzymatic step: inhibitors are incubated with the kinase and then ATP (included in the ADP-Glo Kinase Assay Kit) and the DYRKtide are added to start the enzymatic reaction; (2) Detection step: after the kinase reaction, first ADP-Glo™ Reagent is added to terminate the kinase reaction and deplete the remaining ATP. Second, the Kinase Detection Reagent is added to simultaneously convert ADP to ATP and allow the newly synthesized ATP to be measured using a luciferase/luciferin reaction. The light generated is measured using a luminometer.
Briefly, DYRK1A (3 nM) in the enzymatic buffer solutions (40 mM Tris, pH 7.5, 20 mM MgCl2, 0.1 mg/ml BSA, 50 μM DTT) were mixed with various concentrations of inhibitors (dissolved in 100% DMSO). These solutions were incubated for 30 minutes at 25° C., and subsequently a mixture of substrate peptide and ATP was added with the final peptide and ATP concentrations at 20 μM and 60 μM, respectively. The final reaction mixture of enzyme-substrate-ATP-compound was incubated for 60 minutes at 25° C.
Afterwards ADP-Glo™ Reagent was added and the mixture was incubated at 25° C. for 60 minutes. Then Kinase Detection Reagent was added and the final mixture was incubated at 25° C. for 60 minutes. The luminescence signal of the final solution was measured on an Envision instrument (PerkinElmer). The percent (%) inhibition at each concentration of a compound is calculated relative to the luminescence signal in the Max and Min control wells contained within each assay plate. […] The concentrations and percent inhibition values for a test compound are plotted and the concentration of the compound required to achieve 50% inhibition (IC50) is determined with a four-parameter logistic dose response equation.

SMILES | Avg 1 uM (average myocyte proliferation) [1] | Avg 3 uM (average myocyte proliferation) [1] | IC50 (human DYRK1A) [µM] | Avg 10 uM (average myocyte proliferation) [1]
O=C1NC(Nc2ccc3ncsc3c2)=N/C1=C\c1ccc2cc[nH]c2c1 [Example 63, (Z)-5-((1H-indol-6-yl)methylene)-2-(benzo[d]thiazol-6-ylamino)-3,5-dihydro-4H-imidazol-4-one] | * (<10% growth relative to blank myocyte growth without compound added.) | * (<10% growth relative to blank myocyte growth without compound added.) | > 10 | 
O=C1NC(Nc2ccccc2)=N/C1=C\c1ccc2cc[nH]c2c1 [Example 73, (Z)-5-((1H-indol-6-yl)methylene)-2-(phenylamino)-3,5-dihydro-4H-imidazol-4-one] | * (<10% growth relative to blank myocyte growth without compound added.) | * (<10% growth relative to blank myocyte growth without compound added.) | > 10 | 
Cn1cnc2ccc(/C=C3\N=C(Nc4ccccc4)NC3=O)cc21 [Example 46, (Z)-5-((1-methyl-1H-benzo[d]imidazol-6-yl)methylene)-2-(phenylamino)-3,5-dihydro-4H-imidazol-4-one] | *** (>50%) | ** (10%-50%) | < 0.1 | *** (>50%)
O=C1NC(N(Cc2ccccc2)c2ccccc2)=N/C1=C\c1ccc2c(c1)OCO2 [Example 22, (Z)-5-(benzo[d][1,3]dioxol-5-ylmethylene)-2-(benzyl(phenyl)amino)-3,5-dihydro-4H-imidazol-4-one] | ** (10%-50%) | ** (10%-50%) | > 10 | ** (10%-50%)
O=C1NC(Nc2ccccc2)=N/C1=C\c1ccc2ncccc2c1 [Example 53, (Z)-2-(phenylamino)-5-(quinolin-6-ylmethylene)-3,5-dihydro-4H-imidazol-4-one] | ** (10%-50%) | *** (>50%) | < 0.1 | ** (10%-50%)
O=C1NC(Nc2ccc3ncsc3c2)=N/C1=C\c1ccc2nc[nH]c2c1 [Example 76, (Z)-5-((1H-benzo[d]imidazol-6-yl)methylene)-2-(benzo[d]thiazol-6-ylamino)-3,5-dihydro-4H-imidazol-4-one] | * (<10% growth relative to blank myocyte growth without compound added.) | ** (10%-50%) | < 0.1 | 
O=C1NC(Nc2ccccc2)=N/C1=C\c1ccc2[nH]ncc2c1 [Example 55, (Z)-5-((1H-indazol-5-yl)methylene)-2-(phenylamino)-3,5-dihydro-4H-imidazol-4-one] | * (<10% growth relative to blank myocyte growth without compound added.) | * (<10% growth relative to blank myocyte growth without compound added.) | < 0.1 | 
CN(CC1CC1)C1=N/C(=C\c2ccc3c(c2)OCO3)C(=O)N1 [Example 11, (Z)-5-(benzo[d][1,3]dioxol-5-ylmethylene)-2-((cyclopropylmethyl)(methyl)amino)-3,5-dihydro-4H-imidazol-4-one] | ** (10%-50%) | ** (10%-50%) | 0.1 to 1 | *** (>50%)
Cn1cnc2cc(/C=C3\N=C(Nc4ccccc4)NC3=O)ccc21 [Example 71, (Z)-5-((1-methyl-1H-benzo[d]imidazol-5-yl)methylene)-2-(phenylamino)-3,5-dihydro-4H-imidazol-4-one] | * (<10% growth relative to blank myocyte growth without compound added.) | * (<10% growth relative to blank myocyte growth without compound added.) | > 10 | 
O=C1NC(Nc2ccccc2)=N/C1=C\c1ccc2[nH]cnc2c1 [Example 26, (Z)-5-((1H-benzo[d]imidazol-5-yl)methylene)-2-(phenylamino)-3,5-dihydro-4H-imidazol-4-one] | * (<10% growth relative to blank myocyte growth without compound added.) | * (<10% growth relative to blank myocyte growth without compound added.) | < 0.1 | * (<10% growth relative to blank myocyte growth without compound added.)
O=C1NC(Nc2ccc3nc(Nc4ccccc4)sc3c2)=N/C1=C\c1ccc2ncsc2c1 [Example 104, (Z)-5-(benzo[d]thiazol-6-ylmethylene)-2-((2-(phenylamino)benzo[d]thiazol-6-yl)amino)-3,5-dihydro-4H-imidazol-4-one] | * (<10% growth relative to blank myocyte growth without compound added.) | ** (10%-50%) | 1 to 10 | 
CN(C1=N/C(=C\c2ccc3c(c2)OCO3)C(=O)N1)c1ccc2ncsc2c1 [Example 70, (Z)-5-(benzo[d][1,3]dioxol-5-ylmethylene)-2-(benzo[d]thiazol-6-yl(methyl)amino)-3,5-dihydro-4H-imidazol-4-one] | ** (10%-50%) | ** (10%-50%) | > 10 | 
CN1C(=O)/C(=C/c2ccc3c(c2)OCO3)N=C1N(C)c1ccccc1 [Example 3, (Z)-5-(benzo[d][1,3]dioxol-5-ylmethylene)-3-methyl-2-(methyl(phenyl)amino)-3,5-dihydro-4H-imidazol-4-one] | * (<10% growth relative to blank myocyte growth without compound added.) | * (<10% growth relative to blank myocyte growth without compound added.) | 1 to 10 | * (<10% growth relative to blank myocyte growth without compound added.)
